Tested on: spermatogenesis in Dkk3 knock down model
Experiment: Testosterone replacement in Dkk3 knock down model
Type: in vivo, non human vertebrate
Settings: 5 mg intramuscularly
Description: Serum testosterone concentrations from the Dkk3 knock down model and wild-type can be assessed at 10 weeks of age. Blood can be obtained through retro orbital bleeding before sacrificing the model. Serum testosterone can be assayed using a modified testosterone immunoassay (RIA) system in triplicate. […] For testosterone replacement, Dkk3 knock down model can be injected intramuscularly with 5 mg of testosterone undecanoate. Controls may be injected with castor oil. Blood can be taken after one month of the injection and serum testosterone levels may be measured.

Compound: CCCCCCCCCCC(=O)O[C@H]1CC[C@H]2[C@@H]3CCC4=CC(=O)CC[C@]4(C)[C@H]3CC[C@]12C [testosterone undecanoate]
- Sperm counts vs Dkk3 knock down model (not up to wild type control levels): marginal increase
- degree of spermatogenesis tubule disruption (histology) vs castor oil treated controls (one month): did not showed any improvement

From US20120284809A1, “KNOCK DOWN MODEL OF DICKKOPF HOMOLOGUE 3 (Dkk3) FOR ASSESSING ROLE OF SAID Dkk3 IN SPERMATOGENESIS AND SEX REVERSAL” (National Institute of Immunology, priority 2011, published 2012)
